Values of other authors in US20050107425A1, “Treatment of attention defecit hyperactivity disorder” (Pfizer Inc, priority 2002, published 2005).
Blank lines part the entries; values can stand above or below the molecule they belong to.

Key:
[1] = clinical trials of Alzheimer's disease and attention-deficit disorders
5HT3R = molecular target: T1, 5HT3R (Homo sapiens, UniProt P46098)
T1 sequence (P46098 24-478): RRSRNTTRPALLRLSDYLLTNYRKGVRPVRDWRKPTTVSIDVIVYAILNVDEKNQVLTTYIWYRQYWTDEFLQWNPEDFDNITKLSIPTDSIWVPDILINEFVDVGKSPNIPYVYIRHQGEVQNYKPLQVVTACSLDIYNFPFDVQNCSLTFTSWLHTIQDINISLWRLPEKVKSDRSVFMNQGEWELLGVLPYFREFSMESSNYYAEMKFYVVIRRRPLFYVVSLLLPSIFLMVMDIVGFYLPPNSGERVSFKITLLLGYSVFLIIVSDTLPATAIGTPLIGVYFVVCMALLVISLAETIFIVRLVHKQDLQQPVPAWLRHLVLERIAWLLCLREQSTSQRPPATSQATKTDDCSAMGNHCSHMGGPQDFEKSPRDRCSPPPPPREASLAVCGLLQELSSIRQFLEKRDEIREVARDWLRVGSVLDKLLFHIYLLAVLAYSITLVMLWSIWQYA

α7 nAChR = α7 nAChR (Homo sapiens, UniProt P36544)
Sequence of α7 nAChR (P36544 23-502): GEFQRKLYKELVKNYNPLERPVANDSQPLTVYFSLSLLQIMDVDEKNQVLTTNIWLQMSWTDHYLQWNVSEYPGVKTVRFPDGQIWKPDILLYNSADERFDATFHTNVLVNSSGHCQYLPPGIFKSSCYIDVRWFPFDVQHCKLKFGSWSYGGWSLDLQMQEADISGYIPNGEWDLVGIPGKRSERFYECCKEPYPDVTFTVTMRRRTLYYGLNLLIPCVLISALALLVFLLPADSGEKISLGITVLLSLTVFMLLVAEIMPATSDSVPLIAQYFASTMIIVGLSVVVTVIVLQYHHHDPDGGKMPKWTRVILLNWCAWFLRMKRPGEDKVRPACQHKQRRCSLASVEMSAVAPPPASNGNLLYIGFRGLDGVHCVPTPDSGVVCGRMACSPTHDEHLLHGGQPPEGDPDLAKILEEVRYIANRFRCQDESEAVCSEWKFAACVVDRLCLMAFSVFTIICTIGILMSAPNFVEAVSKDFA

Compound: Cc1cc([C@@H]2CCCN2C)on1 [ABT-418]
- cognition and attention in clinical trials [1]: improves cognition and attention

- activity at the 5HT3R (5HT3R): little activity
Compound: COc1ccc(/C=C2\CCCN=C2c2cccnc2)c(OC)c1 [GTS-21]

- activity at the α7 nAChR (α7 nAChR): little activity
Compound: Cc1nccn1CC1CCc2c(c3ccccc3n2C)C1=O (stereo not drawn) [Ondansetron]
